Data as given in PMC9013686, “Inter-individual variation in chlorpyrifos toxicokinetics characterized by physiologically based kinetic (PBK) and Monte Carlo simulation comparing human liver microsome and Supersome™ cytochromes P450 (CYP)-specific kinetic data as model input” (Archives of Toxicology, 2022).

Experiments:
Assay type in all cases: in vitro ADME
[1] = biological target: T1, CYP3A4 in pooled HLMs (Homo sapiens, UniProt P08684); assay: Pooled HLM incubation with CYP3A4 probe substrate (ISEF determination); conditions: 6β-hydroxytestosterone formation
T1 construct: the native CYPs present in HLM; tissue Corning (Amsterdam, The Netherlands); host or cells: pooled human liver microsomes, 150 donors, mixed gender
T1 sequence (P08684 2-503): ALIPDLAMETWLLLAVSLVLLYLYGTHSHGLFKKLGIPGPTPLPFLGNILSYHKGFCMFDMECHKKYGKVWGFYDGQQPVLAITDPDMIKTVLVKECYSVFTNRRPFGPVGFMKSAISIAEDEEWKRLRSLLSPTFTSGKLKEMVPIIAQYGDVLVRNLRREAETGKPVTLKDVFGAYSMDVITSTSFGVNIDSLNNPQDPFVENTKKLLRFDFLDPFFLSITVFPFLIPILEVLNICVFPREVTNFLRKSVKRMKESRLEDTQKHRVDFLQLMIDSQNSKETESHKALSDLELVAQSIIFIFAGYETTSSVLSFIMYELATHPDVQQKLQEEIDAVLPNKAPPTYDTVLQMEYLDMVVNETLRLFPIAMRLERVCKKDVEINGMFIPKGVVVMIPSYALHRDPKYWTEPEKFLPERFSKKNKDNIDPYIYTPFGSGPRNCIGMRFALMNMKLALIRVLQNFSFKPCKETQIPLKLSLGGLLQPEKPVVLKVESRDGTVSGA
Experimental: (§1) To normalize for differences in intrinsic CYP activity between Supersome™ and pooled HLMs and enable scaling of the activities to the in vivo situation, CYP-specific ISEF values need to be established. […] The incubation method was similar as used for the CPF kinetic incubation assay described above, except that certain incubation conditions were replaced by the conditions listed in Table 1. The samples obtained were analyzed by UPLC-PDA for acetaminophen, 4-hydroxymephenytoin, and 6β-hydroxytestosterone formation catalyzed by 1A2, 2C19 and 3A4, or LC–MS/MS for (±)-hydroxybupropion formation catalyzed by 2B6.
(§2) As mentioned before, the in vitro apparent kinetic parameters (Vmax and Km) for pathway 1 and pathway 2 in the HLM-based approach, and pathway 3 in both approaches were all obtained directly from reported studies using pooled HLMs (Buratti et al. [2003]; Sams et al. [2004]; Zhao et al. [2019]). Therefore, no extra calculations were required to define these parameters. […] It should be noted that the kinetic parameters for pathway 4 used in the two approaches were calculated as mean of the kinetic parameters (Vmax and Km) obtained using 25 individual HP samples (with correction for total protein concentration of each plasma sample).

[2] = biological target: CYP3A4 (Homo sapiens, UniProt P08684); assay: Supersome CYP3A4 kinetic incubations; set-up: purchased Corning (Amsterdam, The Netherlands); host or cells: baculovirus-transfected insect cells
Sequence of CYP3A4 (P08684 2-503 limits assumed): as the sequence (P08684 2-503) above
Experimental: The final incubations were carried out in 50 mM Tris–HCl (pH 7.4) containing 5 mM MgCl2, 1 mM EDTA (as an A-esterase PON1 inhibitor) (Bizoń and Milnerowicz [2018]), 50 µM iso-OMPA (as a B-esterases inhibitor) (Lane et al. [2006]), Supersome™ isoform (at final concentration of 0.005 nmol CYP/ml for 1A2, 0.001 nmol CYP/ml for 2B6, 0.01 nmol CYP/ml for 2C19, and 0.01 nmol CYP/ml for 3A4) and CPF at different final concentrations (0.05, 0.1, 0.25, 0.5, 1, 5 and 10 µM for 1A2, 0.05, 0.1, 0.25, 0.5, 1, 5 10 and 25 µM for 2B6, 1, 2.5, 5, 10, 25 and 50 µM for 2C19, and 0.5, 1, 2.5, 5, 10, 25 and 50 µM for 3A4), which were added from 100 times concentrated stock solutions in ACN. After 1 min preincubation in a 37 °C water bath, 5 µl NADPH (final concentration 1 mM) was added to the incubation system. Control incubations were performed by replacing NADPH with the same amount of Tris–HCl (pH 7.4). The total volume of the incubation mixtures was 200 µl. The incubations lasted for 2 min at 37 °C and were terminated by addition of 50 µl ice cold ACN and subsquently put on ice. After that, samples were centrifuged at 16,000 g (4 ℃) for 5 min and supernatants of samples were separated into two equal portions for Ultra-Performance Liquid Chromatography-Photodiode Array (UPLC-PDA) and Liquid Chromatography Mass Spectrometry (LC–MS/MS) analysis, respectively.
as §1
As mentioned before, the in vitro apparent kinetic parameters (Vmax and Km) for pathway 1 and pathway 2 in the HLM-based approach, and pathway 3 in both approaches were all obtained directly from reported studies using pooled HLMs (Buratti et al. [2003]; Sams et al. [2004]; Zhao et al. [2019]). Therefore, no extra calculations were required to define these parameters. The kinetic parameters for the ISEF calculation, pathway 1 and 2 in the Supersome™-based approach, and pathway 4 in both approaches (25 individuals) were all obtained by fitting the experimental data to the Michaelis–Menten model using GraphPad (GraphPad Prism 5.0 software, San Diego, CA, USA). It should be noted that the kinetic parameters for pathway 4 used in the two approaches were calculated as mean of the kinetic parameters (Vmax and Km) obtained using 25 individual HP samples (with correction for total protein concentration of each plasma sample).
The in vivo Kmi values were assumed to be equal to the apparent Kmi(app) values (µM) obtained in the in vitro incubations, while the in vivo Vmaxi for each CYP isoform was derived from their corresponding apparent CYP isoform Vmaxi(app) (pmol/min/pmolCYP) using Eq. 3:3 Vmaxi=Vmaxiapp×CYPiabundance×ISEF×60×MPL×1000×VL/1,000,000,

[3] = biological target: T2, CYP1A2 in pooled HLMs (Homo sapiens, UniProt P05177); assay: Pooled HLM incubation with CYP1A2 probe substrate (ISEF determination); conditions: acetaminophen formation
T2 construct: the native CYPs present in HLM; tissue Corning (Amsterdam, The Netherlands); host or cells: pooled human liver microsomes, 150 donors, mixed gender
T2 sequence (P05177 1-516): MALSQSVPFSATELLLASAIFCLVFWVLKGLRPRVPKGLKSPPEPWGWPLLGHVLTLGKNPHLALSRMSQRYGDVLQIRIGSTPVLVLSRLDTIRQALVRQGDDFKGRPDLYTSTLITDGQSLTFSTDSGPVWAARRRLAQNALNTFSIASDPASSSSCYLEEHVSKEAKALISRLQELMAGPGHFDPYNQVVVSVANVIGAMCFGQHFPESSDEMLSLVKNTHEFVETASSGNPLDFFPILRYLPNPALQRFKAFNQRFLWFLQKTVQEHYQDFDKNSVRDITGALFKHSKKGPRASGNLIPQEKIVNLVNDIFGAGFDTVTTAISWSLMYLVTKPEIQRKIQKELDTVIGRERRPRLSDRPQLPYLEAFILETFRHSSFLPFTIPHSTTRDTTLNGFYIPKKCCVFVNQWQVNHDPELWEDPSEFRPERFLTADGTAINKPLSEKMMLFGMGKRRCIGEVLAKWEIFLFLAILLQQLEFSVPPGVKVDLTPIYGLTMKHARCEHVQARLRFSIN
Experimental: as §1, §2

SMILES	Vmax (pooled HLMs) [1]	Vmax (Supersome) ([2]; 6β-hydroxytestosterone formation, Supersome CYP3A4) [pmol/min/pmol CYP]	ISEF ([2]; CYP3A4, calculated on the basis of Eq. 4 from probe substrate Vmax in pooled HLMs and Supersome)	Vmax (pooled HLMs) [3]
C[C@]12CC[C@H]3[C@@H](CCC4=CC(=O)CC[C@@]43C)[C@@H]1CC[C@@H]2O [Testosterone, testosterone, reference compound]	17.29 nmol/min/mg microsomal protein	1179	0.11	
CCOc1ccc(NC(C)=O)cc1 [Phenacetin, phenacetin]				0.15 nmol/min/mg microsomal protein
